In ChEMBL document CHEMBL5137068, “Discovery of Hexahydrofuro[3,2-b]furans as New Kinase-Selective and Orally Bioavailable JAK3 Inhibitors for the Treatment of Leukemia Harboring a JAK3 Activating Mutant” (J Med Chem, 2022):

Columns and labels:
[1] = test system: BaF3; assay: cells; conditions: Mus musculus, BaF3, 72 h
[2] = test system: BaF3; assay: cells; conditions: Mus musculus, BaF3, 72 h; remark: listed apart in the source
[3] = test system: U-937; assay: cells; conditions: Homo sapiens, U-937, 72 h
[4] = molecular target: T1, Tyrosine-protein kinase JAK3 (Homo sapiens, UniProt P52333)
T1 sequence (P52333 whole entry): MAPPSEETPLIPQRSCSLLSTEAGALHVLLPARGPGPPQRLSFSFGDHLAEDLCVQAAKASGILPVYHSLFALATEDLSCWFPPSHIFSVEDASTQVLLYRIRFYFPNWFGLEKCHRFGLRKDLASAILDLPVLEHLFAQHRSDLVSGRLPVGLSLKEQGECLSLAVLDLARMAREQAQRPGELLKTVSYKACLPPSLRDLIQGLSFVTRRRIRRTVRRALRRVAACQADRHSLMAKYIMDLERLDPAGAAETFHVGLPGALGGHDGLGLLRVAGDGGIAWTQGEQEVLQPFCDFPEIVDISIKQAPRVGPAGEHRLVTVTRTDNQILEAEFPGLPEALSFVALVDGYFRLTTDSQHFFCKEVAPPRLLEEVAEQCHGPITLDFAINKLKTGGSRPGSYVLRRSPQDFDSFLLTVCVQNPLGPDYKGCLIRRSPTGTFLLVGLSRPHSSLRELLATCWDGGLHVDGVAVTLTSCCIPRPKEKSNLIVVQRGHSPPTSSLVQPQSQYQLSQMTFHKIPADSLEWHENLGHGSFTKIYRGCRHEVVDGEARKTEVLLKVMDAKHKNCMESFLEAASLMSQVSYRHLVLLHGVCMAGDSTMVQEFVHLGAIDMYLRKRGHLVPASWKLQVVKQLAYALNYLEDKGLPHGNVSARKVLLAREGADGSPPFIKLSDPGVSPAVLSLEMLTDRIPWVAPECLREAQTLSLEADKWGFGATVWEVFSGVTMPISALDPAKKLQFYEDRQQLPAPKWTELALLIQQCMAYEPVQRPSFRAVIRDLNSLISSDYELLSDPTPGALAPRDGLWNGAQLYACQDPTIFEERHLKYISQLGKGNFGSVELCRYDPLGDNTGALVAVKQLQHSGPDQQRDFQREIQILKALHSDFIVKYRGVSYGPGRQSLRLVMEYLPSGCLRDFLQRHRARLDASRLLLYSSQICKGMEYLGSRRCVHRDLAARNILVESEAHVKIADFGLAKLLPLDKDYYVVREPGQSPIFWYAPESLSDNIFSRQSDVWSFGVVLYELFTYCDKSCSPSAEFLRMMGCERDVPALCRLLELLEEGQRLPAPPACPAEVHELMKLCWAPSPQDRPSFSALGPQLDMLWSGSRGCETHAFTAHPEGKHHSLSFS
Description: Inhibition of GST tagged recombinant human JAK3 expressed in baculovirus infection system by FRET assay

[5] = test system: BaF3; assay: cells; conditions: Mus musculus, BaF3, 72 h; remark: listed apart in the source
Description: Antiproliferative activity against mouse BaF3 parent cell measured after 72 hrs by CCK-8 assay

[6] = test system: BaF3; assay: cells; conditions: Mus musculus, BaF3, 72 h; remark: listed apart in the source
[7] = Clearance in 12 hr fasted SPF Sprague-Dawley rat at 5 mg/kg, iv upon 2 hrs fasting post-administration measured upto 24 hrs; type: ADME, organism-based; conditions: in vivo
[8] = Cmax in 12 hr fasted SPF Sprague-Dawley rat at 15 mg/kg, po upon 2 hrs fasting post-administration measured upto 24 hrs; type: ADME, organism-based; design: time < 24 hrs, dose 15 mg/kg, route po; conditions: in vivo
[9] = Half life in 12 hr fasted SPF Sprague-Dawley rat at 15 mg/kg, po upon 2 hrs fasting post-administration measured upto 24 hrs; type: ADME, organism-based; conditions: in vivo
[10] = AUC(0 to infinity) in 12 hr fasted SPF Sprague-Dawley rat at 5 mg/kg, iv upon 2 hrs fasting post-administration measured upto 24 hrs; type: ADME, organism-based; design: dose 5 mg/kg, time < 24 hrs, route iv; conditions: in vivo
[11] = Half life in 12 hr fasted SPF Sprague-Dawley rat at 5 mg/kg, iv upon 2 hrs fasting post-administration measured upto 24 hrs; type: ADME, organism-based; conditions: in vivo
[12] = AUC(0 to infinity) in 12 hr fasted SPF Sprague-Dawley rat at 15 mg/kg, po upon 2 hrs fasting post-administration upto 24 hrs; type: ADME, organism-based; design: dose 15 mg/kg, time < 24 hrs, route po; conditions: in vivo
[13] = Cmax in 12 hr fasted SPF Sprague-Dawley rat at 5 mg/kg, iv upon 2 hrs fasting post-administration measured upto 24 hrs; type: ADME, organism-based; design: dose 5 mg/kg, time < 24 hrs, route iv; conditions: in vivo
[14] = Metabolic stability in rat liver microsome assessed as half life preincubated for 5 mins followed by NADPH addition measured upto 45 mins by LC/MS analysis; type: ADME; conditions: liver microsomes, time < 50 min
[15] = Oral bioavailability in 12 hr fasted SPF Sprague-Dawley rat at 15 mg/kg upon 2 hrs fasting post-administration measured upto 24 hrs; type: ADME, organism-based; conditions: in vivo
[16] = molecular target: Non-receptor tyrosine-protein kinase TYK2 (Homo sapiens, UniProt P29597)
Non-receptor tyrosine-protein kinase TYK2, sequence (P29597 whole entry): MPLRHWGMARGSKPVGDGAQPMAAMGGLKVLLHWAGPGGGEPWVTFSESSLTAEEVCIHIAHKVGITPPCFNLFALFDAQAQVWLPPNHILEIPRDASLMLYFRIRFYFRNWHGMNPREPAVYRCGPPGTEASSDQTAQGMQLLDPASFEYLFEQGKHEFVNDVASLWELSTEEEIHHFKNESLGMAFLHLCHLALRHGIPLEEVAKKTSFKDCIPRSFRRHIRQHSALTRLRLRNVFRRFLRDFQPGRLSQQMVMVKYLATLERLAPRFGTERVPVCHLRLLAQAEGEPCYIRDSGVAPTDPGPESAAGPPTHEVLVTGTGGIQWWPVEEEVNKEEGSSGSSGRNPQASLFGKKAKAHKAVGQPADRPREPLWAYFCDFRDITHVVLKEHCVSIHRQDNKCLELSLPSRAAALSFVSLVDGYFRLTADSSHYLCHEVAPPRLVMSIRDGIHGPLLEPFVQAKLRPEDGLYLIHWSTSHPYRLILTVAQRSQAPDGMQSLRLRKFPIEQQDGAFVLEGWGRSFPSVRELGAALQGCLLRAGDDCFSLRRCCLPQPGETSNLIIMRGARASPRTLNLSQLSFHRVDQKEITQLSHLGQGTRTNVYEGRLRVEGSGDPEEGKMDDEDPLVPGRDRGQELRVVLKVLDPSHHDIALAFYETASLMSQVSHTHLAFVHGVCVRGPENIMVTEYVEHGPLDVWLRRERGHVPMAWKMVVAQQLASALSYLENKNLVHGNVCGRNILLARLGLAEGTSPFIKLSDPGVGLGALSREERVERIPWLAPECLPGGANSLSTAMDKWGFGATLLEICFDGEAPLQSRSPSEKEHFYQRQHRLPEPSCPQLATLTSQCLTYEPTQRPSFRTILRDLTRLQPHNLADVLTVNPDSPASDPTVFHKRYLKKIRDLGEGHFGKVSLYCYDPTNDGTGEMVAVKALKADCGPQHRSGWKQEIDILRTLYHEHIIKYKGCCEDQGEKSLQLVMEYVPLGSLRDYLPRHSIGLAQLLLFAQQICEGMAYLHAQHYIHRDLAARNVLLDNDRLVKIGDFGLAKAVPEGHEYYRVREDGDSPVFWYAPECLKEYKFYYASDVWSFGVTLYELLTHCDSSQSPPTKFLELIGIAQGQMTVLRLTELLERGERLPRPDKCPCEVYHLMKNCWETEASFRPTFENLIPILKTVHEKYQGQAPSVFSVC
Description: Inhibition of human TYK2 by FRET assay

[17] = molecular target: Tyrosine-protein kinase JAK1 (Homo sapiens, UniProt P23458)
Tyrosine-protein kinase JAK1, sequence (P23458 whole entry): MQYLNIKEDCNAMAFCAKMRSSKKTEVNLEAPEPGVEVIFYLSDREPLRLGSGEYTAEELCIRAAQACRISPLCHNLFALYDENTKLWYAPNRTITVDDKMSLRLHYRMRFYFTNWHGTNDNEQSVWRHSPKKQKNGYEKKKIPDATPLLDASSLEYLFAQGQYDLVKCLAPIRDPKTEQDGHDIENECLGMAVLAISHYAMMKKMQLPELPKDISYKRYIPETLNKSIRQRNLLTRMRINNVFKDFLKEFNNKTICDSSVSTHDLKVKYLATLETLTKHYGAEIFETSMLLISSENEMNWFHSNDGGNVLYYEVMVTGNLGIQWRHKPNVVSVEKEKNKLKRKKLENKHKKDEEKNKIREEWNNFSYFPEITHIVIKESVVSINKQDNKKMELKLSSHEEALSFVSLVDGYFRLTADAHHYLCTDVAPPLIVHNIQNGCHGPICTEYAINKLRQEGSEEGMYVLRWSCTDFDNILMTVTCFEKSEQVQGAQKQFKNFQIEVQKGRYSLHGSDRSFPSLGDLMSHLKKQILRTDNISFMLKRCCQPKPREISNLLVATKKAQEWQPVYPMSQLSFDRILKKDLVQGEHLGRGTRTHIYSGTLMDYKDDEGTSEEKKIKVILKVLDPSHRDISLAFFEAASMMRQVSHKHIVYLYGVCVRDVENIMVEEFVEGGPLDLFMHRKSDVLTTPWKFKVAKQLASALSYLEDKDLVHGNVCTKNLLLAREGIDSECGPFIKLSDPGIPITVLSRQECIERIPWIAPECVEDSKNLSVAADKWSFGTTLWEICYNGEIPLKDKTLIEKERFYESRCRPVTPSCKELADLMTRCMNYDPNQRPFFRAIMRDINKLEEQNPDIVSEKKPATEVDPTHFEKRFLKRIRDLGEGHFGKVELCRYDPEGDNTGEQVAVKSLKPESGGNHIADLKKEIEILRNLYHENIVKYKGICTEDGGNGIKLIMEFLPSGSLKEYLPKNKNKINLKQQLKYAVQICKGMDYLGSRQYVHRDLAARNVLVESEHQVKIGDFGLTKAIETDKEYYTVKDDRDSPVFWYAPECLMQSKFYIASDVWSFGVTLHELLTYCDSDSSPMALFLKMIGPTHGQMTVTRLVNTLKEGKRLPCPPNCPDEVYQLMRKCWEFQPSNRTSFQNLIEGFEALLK

[18] = molecular target: Tyrosine-protein kinase JAK2 (Homo sapiens, UniProt O60674)
Tyrosine-protein kinase JAK2, sequence (O60674 whole entry): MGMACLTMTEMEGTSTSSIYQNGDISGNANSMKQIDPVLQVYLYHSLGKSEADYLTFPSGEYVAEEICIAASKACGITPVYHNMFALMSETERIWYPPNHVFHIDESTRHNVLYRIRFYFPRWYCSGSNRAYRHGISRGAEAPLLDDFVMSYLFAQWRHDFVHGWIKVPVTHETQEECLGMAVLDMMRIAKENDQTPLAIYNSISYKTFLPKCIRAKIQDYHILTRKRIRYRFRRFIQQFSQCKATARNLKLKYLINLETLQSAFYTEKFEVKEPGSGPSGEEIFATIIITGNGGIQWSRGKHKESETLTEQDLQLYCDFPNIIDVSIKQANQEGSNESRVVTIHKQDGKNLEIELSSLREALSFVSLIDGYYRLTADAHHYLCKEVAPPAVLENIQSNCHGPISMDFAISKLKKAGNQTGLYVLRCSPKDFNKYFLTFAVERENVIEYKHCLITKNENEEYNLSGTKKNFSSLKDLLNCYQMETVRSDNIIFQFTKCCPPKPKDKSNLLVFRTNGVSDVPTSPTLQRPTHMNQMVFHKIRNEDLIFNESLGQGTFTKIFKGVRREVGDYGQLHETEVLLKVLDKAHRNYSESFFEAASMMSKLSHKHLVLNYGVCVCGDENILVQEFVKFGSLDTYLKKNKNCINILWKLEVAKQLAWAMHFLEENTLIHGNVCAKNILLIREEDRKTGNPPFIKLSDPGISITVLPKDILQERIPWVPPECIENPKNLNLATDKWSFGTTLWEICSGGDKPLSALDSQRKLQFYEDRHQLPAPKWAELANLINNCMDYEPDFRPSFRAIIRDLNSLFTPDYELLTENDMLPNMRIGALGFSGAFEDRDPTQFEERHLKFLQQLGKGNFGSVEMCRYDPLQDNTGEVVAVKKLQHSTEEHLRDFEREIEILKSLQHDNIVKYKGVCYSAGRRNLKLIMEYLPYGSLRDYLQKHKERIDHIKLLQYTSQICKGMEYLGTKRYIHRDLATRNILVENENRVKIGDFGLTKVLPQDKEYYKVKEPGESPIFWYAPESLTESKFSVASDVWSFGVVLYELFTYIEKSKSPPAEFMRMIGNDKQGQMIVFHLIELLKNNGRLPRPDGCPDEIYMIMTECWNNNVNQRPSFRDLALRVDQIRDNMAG
Description: Inhibition of GST tagged recombinant human JAK2 expressed in baculovirus infection system by FRET assay

Row | IC50 [1] [µM] | IC50 [2] [µM] | IC50 [3] [µM] | IC50 [4] [µM] | IC50 [5] [µM] | IC50 [6] [µM] | SMILES | also measured
1 | 0.0464 | 0.416 | 0.0503 | 0.0013 | 0.519 | 0.461 | C=CC(=O)Nc1cc(Nc2ncc(Cl)c(O[C@@H]3CO[C@H]4[C@@H]3OC[C@H]4F)n2)ccc1N(C)CCN(C)C | –
2 | 0.108 | 0.137 | 0.03 | – | 0.161 | 0.313 | C=CC(=O)Nc1cc(Nc2ncc(Cl)c(O[C@@H]3CO[C@H]4[C@@H]3OC[C@H]4OCC)n2)ccc1N(C)CCN(C)C | –
3 | – | – | – | 0.0017 | – | – | C#CCCN(C)CCN(C)c1ccc(Nc2ncc(Cl)c(O[C@@H]3CO[C@H]4[C@@H]3OC[C@H]4OC)n2)cc1NC(=O)C=C | –
4 | 1.65 | > 10 | – | – | 1.38 | > 10 | CN1CCN(C2CCN(c3ccc(Nc4ncc(Cl)c(O[C@@H]5CO[C@H]6[C@@H]5OC[C@H]6O)n4)cc3Cl)CC2)CC1 | –
5 | 0.0249 | 0.149 | 0.0152 | – | 0.102 | 0.133 | C=CC(=O)Nc1cc(Nc2ncc(Cl)c(O[C@@H]3CO[C@H]4[C@@H]3OC[C@H]4O)n2)ccc1N(C)CCN(C)C | CL [7]: 299.15%; Cmax [8]: 0.0791 µg/mL; half-life [9]: 1.02 h; AUC(0-inf) [10]: 0.28 µg·h/mL; half-life [11]: 0.8 h; AUC(0-inf) [12]: 0.105 µg·h/mL; Cmax [13]: 0.44 µg/mL; half-life at […] [14]: 2 h; bioavailability [15]: 12.4%
6 | 0.0281 | > 10 | 0.0195 | – | > 10 | > 10 | C=CC(=O)N1C[C@H](Nc2ncnc3[nH]ccc23)CC[C@@H]1C [RITLECITINIB] | –
7 | 0.179 | 0.166 | 0.044 | 0.0013 | 0.205 | 0.336 | C=CC(=O)Nc1cc(Nc2ncc(Cl)c(O[C@@H]3CO[C@H]4[C@@H]3OC[C@H]4OC(C)C)n2)ccc1N(C)CCN(C)C | –
8 | – | – | – | 0.0012 | – | – | C=CC(=O)Nc1cccc(Nc2ncc(Cl)c(O[C@@H]3CO[C@H]4[C@@H]3OC[C@H]4O)n2)c1 | IC50 [16]: 0.094 µM; IC50 [17]: 0.556 µM; IC50 [18]: 1.4 µM
9 | 0.0564 | 0.188 | 0.0338 | 0.0012 | 0.214 | 0.18 | C=CC(=O)Nc1cc(Nc2ncc(Cl)c(O[C@@H]3CO[C@H]4[C@@H]3OCC4(F)F)n2)ccc1N(C)CCN(C)C | –
10 | 0.0201 | 0.0463 | 0.0359 | 0.0018 | 0.0404 | 0.122 | C=CC(=O)Nc1cc(Nc2ncc(Cl)c(O[C@@H]3CO[C@H]4[C@@H]3OC[C@H]4O)n2)ccc1N1CCC(N2CCN(C)CC2)CC1 | IC50 [16]: 0.369 µM; IC50 [17]: 1.54 µM; IC50 [18]: 1.03 µM
11 | – | – | – | 0.0016 | – | – | C=CC(=O)Nc1cc(Nc2ncc(Cl)c(O[C@@H]3CO[C@H]4[C@@H]3OC[C@H]4O)n2)ccc1N1CCOCC1 | –
12 | – | – | – | 0.0019 | – | – | C=CC(=O)Nc1cc(Nc2ncc(Cl)c(O[C@@H]3CO[C@H]4[C@@H]3OC[C@H]4O)n2)ccc1N1CCC(N(C)C)C1 (stereo partly drawn) | –
13 | 0.0886 | 0.418 | 0.0407 | – | 0.476 | 0.435 | C=CC(=O)Nc1cc(Nc2ncc(Cl)c(O[C@@H]3CO[C@H]4[C@@H]3OC[C@@H]4F)n2)ccc1N(C)CCN(C)C | –
14 | – | – | – | 0.0015 | – | – | C=CC(=O)Nc1cc(Nc2ncc(Cl)c(O[C@@H]3CO[C@H]4[C@@H]3OC[C@H]4O)n2)ccc1N1C[C@H]2C[C@@H]1CN2C | –
